# Measured values from patent publication US11850266B2, “Cardiomyocytes and compositions and methods for producing the same” (President and Fellows of Harvard College, priority 2019, dated 2023).
# How the values were obtained:
# Type in all cases: cell-based, human
# [1] = system: mTORC1 (S6K) and mTORC2 (Akt); assay: Western analysis of phosphorylation downstream of mTORC1 and mTORC2 in iPSC-derived cardiomyocytes
# Description: Cells were lysed with lysis buffer (1% Triton X, 0.35% Na-deoxycholate, 1 mM EDTA, 1% protease inhibitor cocktail (Sigma), 1% phosphatase inhibitor cocktail 2 (Sigma), 1% phosphatase inhibitor cocktail 3 (Sigma), 1 mM phenylmethylsulfonyl fluoride (PMSF)) and total protein was measured with the Pierce BCA Protein Assay Kit. Samples with equal total protein quantities (prepared in Laemmli Sample Buffer (Bio-Rad)) were loaded into a Mini-Protean TGX Precast Gel (Bio-Rad) and electrophoresed for 1 hour at 100 V before transfer to a PVDF membrane using the Trans-Blot Turbo Transfer System (Bio-Rad). The Precision Plus Protein Dual Color Standards molecular weight ladder was used to estimate molecular weight of detected bands (Bio-Rad). Membranes were blocked with 5% milk or bovine serum albumin then incubated with the primary antibody (Table 2) overnight at 4 degrees C. followed by incubation with the horseradish peroxidase-conjugated secondary antibody (Table 2) for 1 hour at room temperature. The Amersham ECL Western Blotting Detection kit was used to detect the protein signal by chemiluminescence, and band densities were quantified using ImageJ software (NIH).
# [2] = system: iPSC-derived cardiomyocytes; assay: qPCR mRNA expression in iPSC-derived cardiomyocytes
# Description: To prepare for differentiation, iPSCs were plated at a density between 20,000 to 80,000 cells (depending on the cell line) per well of a 12-well plate at four days prior to onset of differentiation. Cells were differentiated according to the protocol previously described by Lian et al. with some modifications (FIG. 1A) (1). Basal media was changed from StemFlex to RPMI/B27 on day 0 of differentiation. The GSK3 inhibitor, CHIR99021 (6 μM), was added for 48 hours from day 0 to day 2 of differentiation when cells were approximately 70-80% confluent. The Wnt antagonist IWP4 (5 μM) was added from days 2 to 4 of differentiation. Insulin (10 μg/ml) was added to the media starting on day 7 of differentiation, and media was changed every 2-3 days. In general, higher purity (TNNT2+) cardiomyocytes were observed when beating initiated prior to day 10 of differentiation, therefore only batches with onset of beating between days 7-10 of differentiation were included in this study. Beating cardiomyocytes were treated with Torin1 (200 nM, unless otherwise noted) or vehicle (0.02% dimethylsulfoxide (DMSO)) beginning at ˜2 days after onset of beating for 7 days (media changed with fresh Torin1 or DMSO every 2-3 days), unless otherwise noted. After Torin1 treatment, media was switched back to RPMI/B27/insulin and maintained with media change every 2-3 days until endpoint assay. In a few assays, fatty acids were added in the form of chemically defined lipids (Gibco) diluted 1:1000 simultaneous with Torin1 treatment. In some other assays, fetal bovine serum (10% FBS) was added to cells after completion of Torin treatment for 2-4 days.
# RNA was extracted from cells using RiboZol (VWR) followed by the E.Z.N.A. Total RNA I kit (Omega) then reverse transcribed to cDNA with the High Capacity cDNA Reverse Transcription kit (Thermo Fisher Scientific) according to the manufacturer's instructions. Quantitative PCR (qPCR) was performed using the iTaq Universal SYBR Green Supermix (Bio-Rad) and the primer pairs listed in Table 1 with a Bio-Rad CFX384 Real-Time thermal cycler. TATA-binding protein (TBP) was used as the housekeeping gene.
# [3] = system: iPSC-derived cardiomyocytes; assay: Voltage (FluoVolt) analysis with Vala Kinetic Image Cytometer
# Description: Following completion of Torin1 treatment, cardiomyocytes were dissociated as described above then replated at a density of 20,000-30,000 cells per well in a Geltrex-coated Greiner Cellstar black 96 well plate. FluoVolt dye (1:1000 from stock in the FluoVolt Membrane Potential Kit, Thermo) and Hoechst 33258 stain (20 μg/ml) in RPMI1640 (no phenol red) (supplemented with OxyFluor (Oxyrase, 1:100 dilution), 10 mM sodium lactate) were added to each well 15 minutes prior to assay. Cells were electrically stimulated with 15 V at a frequency of 0.5 pulses/sec and a pulse width of 5 msec for 5 pulses using the IC200 Kinetic Image Cytometer (Vala). Images were acquired at 20× and at a frame rate of 70 frames per second. Voltage analysis was performed using the CyteSeer image analysis software, which automatically recognizes Hoechst-stained nuclei, segments, and identifies each cell to quantify voltage data for each cell captured in the field of view (34). Cells were identified by Hoechst-stained nuclei, segmented into individual cells and automatically numbered by CyteSeer software (FIG. 4C). Within each cell, fluorescence intensity was recorded from within a circular region within each numbered, nucleated cell. […] Data from approximately 300-500 individual cells were included for analysis for each condition. Baseline fluorescence was used to normalize for variability in fluorescence intensity between individual cells. The peak rise time, CTD25 (25% duration of the calcium transient, or duration at 25% decline from maximum amplitude), CTD75 (75% duration of the calcium transient, or duration at 75% decline from maximum amplitude), T75-25 (time for voltage to decay from 75% to 25% of maximum), and downstroke velocity were quantified using the CyteSeer image analysis software.
# [4] = system: iPSC-derived cardiomyocytes; assay: Calcium transients (Fluo-4 AM) analysis with Vala Kinetic Image Cytometer; conditions: Torin1 treatment, FIG. 14
# Description: To perform calcium transients analysis, 50 ul of 10 ug/ml Hoeschst 33258 and 5 μM Fluo-4 AM was added to each well of a 96 well plate and incubated for 10 minutes at 37 degrees. Media was replaced with RPMI without phenol red supplemented with 1:100 Oxyfluor and 10 uM sodium lactate. Isoproterenol (1 μM) was added to the media for isoproterenol experiments. Pacing protocol was 5 seconds delay without pacing followed by 5 seconds pacing at 1 Hz and 5 seconds imaging without pacing. Imaging was performed using the Vala Kinetic Image Cytometer at 30 fps with 33.30 ms exposure at 14.25 intensity. Stimulation pulse was 5 ms with 15V voltage. Data was collected by CyteSeer analysis program.
# [5] = system: BJRiPS-derived cardiomyocytes; assay: Example 3 preliminary qPCR of maturation genes in BJRiPS-derived cardiomyocytes
# Description: The BJRiPS cell line was used to generate preliminary data. BJRiPS cells were differentiated into cardiomyocytes according to previously published protocols (6). After the onset of beating (around day 10), cardiomyocytes were treated with vehicle (DMSO) or different concentrations of rapamycin, Torin1, or Torin2 for different time periods. Beating rate was counted manually. Some cells were harvested after 5-7 days of treatment for flow cytometry analysis. Other cells were harvested after 7 days of treatment for qPCR.
# [6] = Torin1 10-200 nM, 7 days, BJRiPS-CMs, FIG. 1E
# [7] = Torin1 10, 50, 200 nM, days 11-18, FIG. 32
smiles,measurement,setting,value
CCC(=O)N1CCN(c2ccc(-n3c(=O)ccc4cnc5ccc(-c6cnc7ccccc7c6)cc5c43)cc2C(F)(F)F)CC1 [Torin1],phosphorylation of AMP kinase (AMPK),"[1]; Torin1 200 nM, 0-48 h, BJRiPS-CMs, FIG. 17B",increased phosphorylation of AMP kinase (AMPK)
same,phosphorylation of S6K and Akt,"[1]; Torin1 200 nM, single treatment, 0-48 h, BJRiPS-CMs",acutely decreased phosphorylation of both S6K and Akt
same,phosphorylation of ribosomal protein S6,"[1]; Torin1 10, 50, 200 nM at days 25-29 after lactate enrichment, FIG. 28",decreased phosphorylation of S6
same,"mRNA expression of TNNI3, CACNA1c and SERCA2a","[2]; 200 nM Torin1 about two days after onset of beating, BJRiPS, FIGS. 18B-18D",robust increase in mRNA expression
same,fatty acid transport protein 6 (FATP6) mRNA,[2]; FIG. 3F,increase in mRNA expression
same,HCN4 mRNA,[2]; FIG. 4A,non-significant trend of increased HCN4
same,selected mitochondrial genes (qPCR) or proteins (western),[2]; FIGS. 13A-13B,Significant changes in selected mitochondrial genes (FIG. 13A) or proteins (FIG. 13B) were not observed
same,E2F4 mRNA,"[2]; Torin1 200 nM from day 9, BJRiPS, FIG. 25B","increased mRNA expression of the inhibitory E2F member, E2F4"
same,RBL2 (p130) mRNA,"[2]; Torin1 200 nM from day 9, FIG. 25C",increased mRNA expression of RBL2
same,MDM2 mRNA,"[2]; Torin1 200 nM from day 9, FIG. 25D","decreased mRNA expression of the E2 ubiquitin-protein ligase, MDM2"
same,"MYH6, MYH7, TNNT2 mRNA","[2]; Torin1 10, 50, 200 nM, 7 days, BJRiPS-CMs, FIG. 2A",trended toward increased expression
same,PPARGC1a mRNA expression,"[2]; Torin1 10, 50, 200 nM, 7 days, FIG. 3F",dose-dependent increase
same,cyclin C1 and E2F1 proliferative markers (qPCR),[2]; [6],significant decrease
same,expression of quiescence markers including p16 and p130 (qPCR),[2]; [6],non-significant trends toward increased expression
same,"KCNJ2, CACNA1c, RYR2, ATP2A2 (SERCA2A), SCN5A mRNA","[2]; Torin1 10 or 200 nM, 7 days, FIG. 4A",significant dose-dependent increase
same,mRNA expression of p21,[2]; discussion of Example 1,significantly decreased mRNA expression
same,TNNI3 mRNA expression,"[2]; dose-dependent, Torin1 10, 50, 200 nM, 7 days, FIG. 2A",significantly increased
same,E2F1 mRNA,"[2]; immediately after Torin1 treatment, transient increase at ~5 days, FIG. 25A","trend toward decreased mRNA expression of the stimulatory E2F member, E2F1"
same,TNNI3 expression by time of Torin1 initiation (qPCR),"[2]; initiation about 2 days after onset of beating, BJRiPS, FIG. 20A",trend toward higher TNNI3 expression
same,CDKN1a (p21) mRNA,"[2]; trend, Torin1 200 nM from day 9, FIG. 25E",decreased mRNA expression of the cyclin inhibitor CDKN1a (p21)
same,CDK2 mRNA,"[2]; trend, Torin1 200 nM from day 9, FIG. 25F","increased mRNA expression of the cyclin-dependent kinase, CDK2"
same,action potential profile,"[3]; FluoVolt, FIG. 4E",longer plateau phase and a sharper upstroke and downstroke
same,action potential peak rise time,"[3]; UCSD-CMs, FIG. 4F",significant decrease
same,downstroke velocity,"[3]; UCSD-CMs, FIG. 4G",significant increase
same,CTD25,"[3]; UCSD-CMs, FIG. 4H",no changes
same,CTD75,"[3]; UCSD-CMs, FIG. 4I",significant decrease
same,T75-25 time,"[3]; UCSD-CMs, FIG. 4J",significant decrease
same,"calcium peak rise time, peak decay time and FWHM time",[4],significant decreases
same,RNA expression of ryanodine receptor (RyR) and SCN5a,[5]; FIG. 32,trend toward increased RNA expression
same,TNNI3 gene expression increase,"[5]; Torin1 200 nM (highest dose tested), FIG. 30",~10 fold
same,"RNA expression of TNNT2, TNNI3, MYH6, MYH7","[5]; Torin1 10, 50, 200 nM, days 11-18, FIG. 30",increased RNA expression of these proteins in a dose dependent manner
same,KCNJ2 expression,[5]; [7],trend toward a dose-dependent increase
same,"ion channel gene expression (KCNJ2, HCN4, SCN5a, RYR2, CACNA1c, SERCA2a)",[5]; [7],Ion channel gene expression increased
same,NPPB (BNP) mRNA expression,"[5]; Torin1 10, 50, 200 nM, days 11-18, FIG. 33",increased
same,PGC1-alpha (PPARGC1a) mRNA expression,"[5]; Torin1 10, 50, 200 nM, days 11-18, FIG. 35",increased expression
same,REST/NRSF expression,"[5]; dose-dependent, Torin1 10, 50, 200 nM, FIG. 34",increases gene expression for REST
same,RNA expression of markers of maturation including TNNI3 and KCNJ2,"[5]; preliminary data, after differentiation",increased RNA expression
